In US20230265151A1, “GIP/GLP1 CO-AGONIST COMPOUNDS” (priority 2020, published 2023):
Read-outs that look alike come from different tables or passages of the source.

Columns and labels:
Assay type in all cases: cell-based
[1] = molecular target: T1, hGIPR (Homo sapiens, UniProt P48546); test: Functional cAMP formation (HTRF) in HEK-293 clonal cells expressing hGIPR, 0.1% bovine casein, without or with 1.0% human serum albumin; conditions: for Emax: percent of maximal response to GIP(1-42)NH2; for EC50: hGIPR EC50, nM (SEM, n), 37° C., geometric mean
T1 construct: expressed in transfected cells
T1 sequence (P48546 22-466): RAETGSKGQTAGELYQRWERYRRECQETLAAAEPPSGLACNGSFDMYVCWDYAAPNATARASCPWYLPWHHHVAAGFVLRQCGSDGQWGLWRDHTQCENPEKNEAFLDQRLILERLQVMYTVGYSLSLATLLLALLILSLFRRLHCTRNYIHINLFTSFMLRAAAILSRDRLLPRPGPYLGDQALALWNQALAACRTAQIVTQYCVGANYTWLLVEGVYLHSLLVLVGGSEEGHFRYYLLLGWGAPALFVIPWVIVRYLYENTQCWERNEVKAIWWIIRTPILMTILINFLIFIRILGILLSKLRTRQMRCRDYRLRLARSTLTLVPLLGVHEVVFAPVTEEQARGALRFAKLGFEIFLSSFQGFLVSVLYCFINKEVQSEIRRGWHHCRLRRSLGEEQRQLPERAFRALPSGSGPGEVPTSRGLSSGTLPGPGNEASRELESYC
Procedure, shortened: (§1)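 Cells were stimulated with peptide for 30 min at 37° C, then lysed in buffer carrying cAMP-d2 and anti-cAMP Eu3+-cryptate for a competitive HTRF read after at least 60 min at room temperature. The 665/620 nm ratio was converted to nM cAMP against a standard curve.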

[2] = molecular target: hGLP-1R (Homo sapiens, UniProt P43220); test: Functional cAMP formation (HTRF) in HEK-293 clonal cells expressing hGLP-1R, 0.1% bovine casein, without or with 1.0% human serum albumin; parameters: expressed in transfected cells; conditions: for EC50: hGLP-1R EC50, nM (SEM, n), cAMP, 37° C., 0.1% bovine casein (no human serum albumin), geometric mean; for Emax: percent of maximal response to GLP-1(7-36)NH2
hGLP-1R, sequence (P43220 24-463): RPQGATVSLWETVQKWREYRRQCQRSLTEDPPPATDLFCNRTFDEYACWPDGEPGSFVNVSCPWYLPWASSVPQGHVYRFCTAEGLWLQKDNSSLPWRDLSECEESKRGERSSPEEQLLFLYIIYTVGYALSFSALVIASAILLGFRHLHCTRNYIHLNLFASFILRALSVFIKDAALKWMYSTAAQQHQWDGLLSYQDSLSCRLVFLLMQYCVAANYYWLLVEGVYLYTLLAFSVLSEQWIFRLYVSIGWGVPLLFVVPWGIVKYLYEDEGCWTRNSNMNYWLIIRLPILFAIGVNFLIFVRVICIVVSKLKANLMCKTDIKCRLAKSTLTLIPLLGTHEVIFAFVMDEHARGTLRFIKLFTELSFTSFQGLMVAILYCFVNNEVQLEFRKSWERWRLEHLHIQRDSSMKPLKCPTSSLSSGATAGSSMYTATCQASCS
Procedure, shortened: as §1

[3] = molecular target: T2, hGCGR (Homo sapiens, UniProt P47871); test: Functional cAMP formation (HTRF) in HEK-293 clonal cells expressing hGCGR, 0.1% bovine casein, without or with 1.0% human serum albumin; conditions: hGCGR EC50, nM (SEM, n), 37° C., geometric mean
T2 construct: expressed in transfected cells
T2 sequence (P47871 26-477): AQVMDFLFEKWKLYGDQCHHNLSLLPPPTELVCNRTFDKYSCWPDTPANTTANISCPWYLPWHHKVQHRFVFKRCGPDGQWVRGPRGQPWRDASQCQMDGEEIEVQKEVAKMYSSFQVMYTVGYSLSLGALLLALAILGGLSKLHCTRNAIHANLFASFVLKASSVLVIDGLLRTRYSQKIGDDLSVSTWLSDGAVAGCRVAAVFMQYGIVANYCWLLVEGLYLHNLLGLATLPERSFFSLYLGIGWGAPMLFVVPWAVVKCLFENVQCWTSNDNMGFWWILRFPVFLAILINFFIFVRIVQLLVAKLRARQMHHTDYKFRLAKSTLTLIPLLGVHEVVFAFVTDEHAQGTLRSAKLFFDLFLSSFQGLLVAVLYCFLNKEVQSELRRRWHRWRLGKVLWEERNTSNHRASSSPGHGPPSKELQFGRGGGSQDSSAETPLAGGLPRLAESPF
Procedure, shortened: as §1

[4] = HEK293, read-out: hGIPR Emax, % ± SEM, 0.1% bovine casein and 1.0% human serum albumin, 37° C.
[5] = 0.1% bovine casein and 1.0% human serum albumin
[6] = cAMP, 0.1% bovine casein (no human serum albumin)
[7] = HEK293, read-out: hGLP-1R Emax, % ± SEM, cAMP, 37° C., 0.1% bovine casein, arithmetic mean
[8] = HEK293, read-out: hGIPR Emax, % ± SEM, cAMP, 37° C., 0.1% bovine casein, arithmetic mean
[9] = HEK293, read-out: hGLP-1R Emax, % ± SEM, 0.1% bovine casein and 1.0% human serum albumin, 37° C.

## CC[C@H](C)[C@H](NC(=O)[C@H](CCCN)NC(=O)[C@H](CC(=O)O)NC(=O)[C@H](CC(C)C)NC(=O)[C@](C)(CC(C)C)NC(=O)[C@@H](NC(=O)[C@](C)(CO)NC(=O)[C@@H](NC(=O)[C@H](CC(=O)O)NC(=O)[C@H](CO)NC(=O)[C@@H](NC(=O)[C@](C)(Cc1ccccc1F)NC(=O)[C@@H](NC(=O)CNC(=O)[C@H](CCC(=O)O)NC(=O)C(C)(C)NC(=O)[C@@H](N)Cc1ccc(O)cc1)[C@@H](C)O)[C@@H](C)O)C(C)C)[C@@H](C)CC)C(=O)N[C@@H](C)C(=O)N[C@@H](CCC(N)=O)C(=O)NC(C)(C)C(=O)N[C@@H](CCC(=O)O)C(=O)N[C@@H](Cc1ccccc1)C(=O)N[C@H](C(=O)N[C@@H](CCCCNC(=O)COCCOCCNC(=O)COCCOCCNC(=O)CC[C@H](NC(=O)CCCCCCCCCOc1ccc(C(=O)O)cc1)C(=O)O)C(=O)N[C@@](C)(Cc1ccc(O)cc1)C(=O)N[C@@H](CC(C)C)C(=O)N[C@H](C(=O)N[C@@H](CCCCNC(=O)COCCOCCNC(=O)COCCOCCNC(=O)CC[C@H](NC(=O)CCCCCCCCCOc1ccc(C(=O)O)cc1)C(=O)O)C(=O)NCC(=O)NCC(=O)N1CCC[C@H]1C(=O)N[C@@H](CO)C(=O)N[C@@H](CO)C(=O)NCC(=O)N[C@@H](C)C(=O)N1CCC[C@H]1C(=O)N1CCC[C@H]1C(=O)N1CCC[C@H]1C(=O)N[C@@H](CO)C(N)=O)[C@@H](C)CC)[C@@H](C)CC [Example 309]
[1]; [4]
  Emax: 95.3%
[1]; [5]
  EC50: 6.08 nM
[1]; [6]
  EC50: 0.0212 nM
[2]
  EC50: 0.527 nM
[3]; [5]
  EC50: > 9950 nM
[3]; [6]
  EC50: > 9950 nM

## CC[C@H](C)[C@H](NC(=O)[C@H](CCCN)NC(=O)[C@H](CC(=O)O)NC(=O)[C@H](CC(C)C)NC(=O)[C@](C)(CC(C)C)NC(=O)[C@@H](NC(=O)[C@H](CO)NC(=O)[C@H](CCc1ccc(O)cc1)NC(=O)[C@H](CC(=O)O)NC(=O)[C@H](CO)NC(=O)[C@@H](NC(=O)[C@](C)(Cc1ccccc1F)NC(=O)[C@@H](NC(=O)CNC(=O)[C@H](CCC(=O)O)NC(=O)C(C)(C)NC(=O)[C@@H](N)Cc1ccc(O)cc1)[C@@H](C)O)[C@@H](C)O)[C@@H](C)CC)C(=O)N[C@@H](C)C(=O)N[C@@H](CCC(N)=O)C(=O)NC(C)(C)C(=O)N[C@@H](CCC(=O)O)C(=O)N[C@@H](Cc1ccccc1)C(=O)N[C@H](C(=O)N[C@@H](CCCCNC(=O)COCCOCCNC(=O)COCCOCCNC(=O)CC[C@H](NC(=O)CCCCCCCCCOc1ccc(C(=O)O)cc1)C(=O)O)C(=O)N[C@@](C)(Cc1ccc(O)cc1)C(=O)N[C@@H](CC(C)C)C(=O)N[C@H](C(=O)N[C@@H](CCCCNC(=O)COCCOCCNC(=O)COCCOCCNC(=O)CC[C@H](NC(=O)CCCCCCCCCOc1ccc(C(=O)O)cc1)C(=O)O)C(=O)NCC(=O)NCC(=O)N1CCC[C@H]1C(=O)N[C@@H](CO)C(=O)N[C@@H](CO)C(=O)NCC(=O)N[C@@H](C)C(=O)N1CCC[C@H]1C(=O)N1CCC[C@H]1C(=O)N1CCC[C@H]1C(=O)N[C@@H](CO)C(N)=O)[C@@H](C)CC)[C@@H](C)CC [Example 310]
[1]; [4]
  Emax: 83.9%
[1]; [6]
  EC50: 0.025 nM
[2]; [7]
  Emax: 105%
[2]
  EC50: 0.347 nM
[3]; [5]
  EC50: > 9950 nM
[3]; [6]
  EC50: > 9950 nM

## CC[C@H](C)[C@H](NC(=O)[C@H](CCCN)NC(=O)[C@H](CC(=O)O)NC(=O)[C@H](CC(C)C)NC(=O)[C@](C)(CC(C)C)NC(=O)[C@@H](NC(=O)C(C)(C)NC(=O)[C@H](Cc1ccncc1)NC(=O)[C@H](CC(=O)O)NC(=O)[C@H](CO)NC(=O)[C@@H](NC(=O)[C@](C)(Cc1ccccc1F)NC(=O)[C@@H](NC(=O)CNC(=O)[C@H](CCC(=O)O)NC(=O)C(C)(C)NC(=O)[C@@H](N)Cc1ccc(O)cc1)[C@@H](C)O)[C@@H](C)O)[C@@H](C)CC)C(=O)N[C@@H](C)C(=O)N[C@@H](CCC(N)=O)C(=O)NC(C)(C)C(=O)N[C@@H](CCC(=O)O)C(=O)N[C@@H](Cc1ccccc1)C(=O)N[C@H](C(=O)N[C@@H](CCCCNC(=O)COCCOCCNC(=O)COCCOCCNC(=O)CC[C@H](NC(=O)CCCCCCCCCCOc1ccc(C(=O)O)cc1)C(=O)O)C(=O)N[C@@](C)(Cc1ccc(O)cc1)C(=O)N[C@@H](CC(C)C)C(=O)N[C@H](C(=O)N[C@@H](CCCCNC(=O)COCCOCCNC(=O)COCCOCCNC(=O)CC[C@H](NC(=O)CCCCCCCCCCOc1ccc(C(=O)O)cc1)C(=O)O)C(=O)NCC(=O)NCC(=O)N1CCC[C@H]1C(=O)N[C@@H](CO)C(=O)N[C@@H](CO)C(=O)NCC(=O)N[C@@H](C)C(=O)N1CCC[C@H]1C(=O)N1CCC[C@H]1C(=O)N1CCC[C@H]1C(=O)N[C@@H](CO)C(N)=O)[C@@H](C)CC)[C@@H](C)CC [Example 311]
[1]; [4]
  Emax: 98.3%
[1]; [8]
  Emax: 105%
[1]; [5]
  EC50: 2.16 nM
[1]; [6]
  EC50: 0.0243 nM
[2]; [7]
  Emax: 110%
[2]
  EC50: 0.791 nM
[3]; [5]
  EC50: > 9950 nM
[3]; [6]
  EC50: > 9950 nM

## CC[C@H](C)[C@H](NC(=O)[C@H](CCCN)NC(=O)[C@H](CC(=O)O)NC(=O)[C@H](CC(C)C)NC(=O)[C@](C)(CC(C)C)NC(=O)[C@@H](NC(=O)C(C)(C)NC(=O)[C@H](Cc1ccc(O)cc1)NC(=O)[C@H](CC(=O)O)NC(=O)[C@H](CO)NC(=O)[C@@H](NC(=O)[C@](C)(Cc1ccccc1F)NC(=O)[C@@H](NC(=O)CNC(=O)[C@H](CCC(=O)O)NC(=O)C(C)(C)NC(=O)[C@@H](N)Cc1ccc(O)cc1)[C@@H](C)O)[C@@H](C)O)[C@@H](C)CC)C(=O)N[C@@H](C)C(=O)N[C@@H](CCC(N)=O)C(=O)NC(C)(C)C(=O)N[C@@H](CCC(=O)O)C(=O)N[C@@H](Cc1ccccc1)C(=O)N[C@H](C(=O)N[C@@H](CCCCNC(=O)COCCOCCNC(=O)COCCOCCNC(=O)CC[C@H](NC(=O)CCCCCCCCCCOc1ccc(C(=O)O)cc1)C(=O)O)C(=O)N[C@@](C)(Cc1ccc(O)cc1)C(=O)N[C@@H](CC(C)C)C(=O)N[C@H](C(=O)N[C@@H](CCCCNC(=O)COCCOCCNC(=O)COCCOCCNC(=O)CC[C@H](NC(=O)CCCCCCCCCCOc1ccc(C(=O)O)cc1)C(=O)O)C(=O)NCC(=O)NCC(=O)N1CCC[C@H]1C(=O)N[C@@H](CO)C(=O)N[C@@H](CO)C(=O)NCC(=O)N[C@@H](C)C(=O)N1CCC[C@H]1C(=O)N1CCC[C@H]1C(=O)N1CCC[C@H]1C(=O)N[C@@H](CO)C(N)=O)[C@@H](C)CC)[C@@H](C)CC [Example 312]
[1]; [4]
  Emax: 89.5%
[1]; [8]
  Emax: 105%
[1]; [6]
  EC50: 0.00757 nM
[2]; [9]
  Emax: 112%
[2]
  EC50: 0.663 nM
[3]; [5]
  EC50: > 9950 nM
[3]; [6]
  EC50: > 9950 nM

## CC[C@H](C)[C@H](NC(=O)[C@H](CCCN)NC(=O)[C@H](CC(=O)O)NC(=O)[C@H](CC(C)C)NC(=O)[C@](C)(CC(C)C)NC(=O)[C@@H](NC(=O)C(C)(C)NC(=O)[C@@H](NC(=O)[C@H](CC(=O)O)NC(=O)[C@H](CO)NC(=O)[C@@H](NC(=O)[C@](C)(Cc1ccccc1F)NC(=O)[C@@H](NC(=O)CNC(=O)[C@H](CCC(=O)O)NC(=O)C(C)(C)NC(=O)[C@@H](N)Cc1ccc(O)cc1)[C@@H](C)O)[C@@H](C)O)C(C)C)[C@@H](C)CC)C(=O)N[C@@H](C)C(=O)N[C@@H](CCC(N)=O)C(=O)NC(C)(C)C(=O)N[C@@H](CCC(=O)O)C(=O)N[C@@H](Cc1ccccc1)C(=O)N[C@H](C(=O)N[C@@H](CCCCNC(=O)COCCOCCNC(=O)COCCOCCNC(=O)CC[C@H](NC(=O)CCCCCCCCCCOc1ccc(C(=O)O)cc1)C(=O)O)C(=O)N[C@@](C)(Cc1ccc(O)cc1)C(=O)N[C@@H](CC(C)C)C(=O)N[C@H](C(=O)N[C@@H](CCCCNC(=O)COCCOCCNC(=O)COCCOCCNC(=O)CC[C@H](NC(=O)CCCCCCCCCCOc1ccc(C(=O)O)cc1)C(=O)O)C(=O)NCC(=O)NCC(=O)N1CCC[C@H]1C(=O)N[C@@H](CO)C(=O)N[C@@H](CO)C(=O)NCC(=O)N[C@@H](C)C(=O)N1CCC[C@H]1C(=O)N1CCC[C@H]1C(=O)N1CCC[C@H]1C(=O)N[C@@H](CO)C(N)=O)[C@@H](C)CC)[C@@H](C)CC [Example 313]
[1]; [6]
  EC50: 0.00781 nM
[2]; [9]
  Emax: 95%
[2]
  EC50: 1.13 nM
[3]; [5]
  EC50: > 9950 nM
[3]; [6]
  EC50: > 9950 nM
